{"source": "patent US20240058344A1", "about": "“METHODS OF TREATING NEURODEGENERATIVE DISORDERS AND STAT3-LINKED CANCERS USING SUPPRESSORS OF ELECTRON LEAK” (Cornell University, priority 2020, published 2024)", "key": {"primary astrocytes": {"system": "primary astrocytes", "test": "Markers of reactivity in primary astrocytes treated with oligomeric Aβ (qRT-PCR)", "assay_type": "cell-based, mice", "settings": "oligomeric Aβ 3 μM, S3QEL2 20 μM, 24 h", "protocol": "(FIGS. 11A-11B) Astrocytes isolated from P2-P3 mice were treated with oligomeric Aβ (3 μM) and S3QEL2 (S3, 20 μM) or vehicle (V) for 24 h and analyzed by qRT-PCR (FIG. 11A) or Western blotting (B) and normalized to vehicle controls. (FIG. 11B) Phospho-STAT3 levels were normalized to total STAT3 per sample. n=3 wells per condition; *p<0.05, **p<0.01, ***p<0.001, ANOVA with Dunnett's test.\nTo further assess if S3QELs alter glial functions, the effects of S3QEL2 on isolated astrocytes and microglia was tested. […] These markers included genes associated with neurodegeneration and aging, such as complement component C3, which promotes synapse elimination in disease, and phosphorylated STAT3, which is considered a central regulator of astrocytic reactivity."}, "[1]": {"system": "primary neurons with primary mouse microglia", "test": "Tau-associated neuronal damage in primary neurons cultured with microglia", "assay_type": "cell-based", "settings": "10 μM; AAV human P301S tau", "protocol": "Primary neurons were immunostained for MAP2 or NeuN following mock treatment or transduction with AAV encoding human P301S mutant tau under the synapsin-1 promoter. Neurons were cultured without (FIGS. 9A-9B) or with (FIGS. 9C-9D) primary mouse microglia. S3QEL2 (S3, 10 μM). n=4 per condition.\n(§1) To begin dissecting the mechanisms by which S3QEL2 affects neural cell function and disease-linked processes, studies in primary cultures were conducted. Isolated mouse-derived neurons were transduced with adeno-associated viral vectors (AAVs) encoding wild-type or the P301S mutant form of the human tau protein (FIG. 8A). […] However, S3QEL reduced neuronal damage in the presence of astrocytes (approx. 30% astrocytes, FIG. 10A). Tau can also promote aberrant neuronal activity and hypersynchrony. S3QEL reduced aberrant neuronal firing in tau-transduced neurons co-cultured with astrocytes (FIGS. 10B-10C)."}, "[2]": {"system": "astrocytic-neuronal co-cultures", "test": "Neuronal damage (NeuN) and neuronal firing (MEA) in astrocytic-neuronal co-cultures with AAV-TauP301S", "assay_type": "cell-based, mouse", "settings": "1 μM", "protocol": "(FIG. 10A) Co-cultures were immunostained for NeuN following transduction with AAV encoding human P301S mutant tau. Vehicle (Veh) or S3QEL2 (S3, 1μM) was added on day 8 in vitro and cells were analyzed on day 14. (FIG. 10B) Example traces recorded using multi-electrode array (MEA). Spikes (black) and network bursts (pink boxes). Top traces show population activities. (FIG. 10C) Average neuronal firing (% of baseline) in co-cultures. Mock treatment (control) or AAV-TauP301S with or without S3QEL2 (S3, 1μM) were added on day 6. n=4 wells per condition, *p<0.05, ANOVA with Bonferroni's test.\nas §1"}}, "data": [{"smiles": "CCCN(CCC)c1ncnc2c1cnn2-c1ccc(C)c(C)c1", "note": "[S3QEL2]", "values": [{"measurement": "Markers of reactivity (genes incl. complement component C3)", "setting": "primary astrocytes", "value": "reduced markers of reactivity"}, {"measurement": "Tau-associated neuronal damage, neurons cultured with microglia", "setting": "[1]", "value": "did not affect tau-associated neuronal damage"}, {"measurement": "Aberrant increases in neuronal firing (MEA) in astrocytic-neuronal co-cultures", "setting": "[2]; added day 6", "value": "prevented"}, {"measurement": "Neuronal damage (NeuN) in astrocytic-neuronal co-cultures", "setting": "[2]; added day 8, analyzed day 14", "value": "prevented neuronal damage"}]}]}
